This is an account of results in patent US20240002350A1, “PROTEIN AND LIPID THERAPEUTIC TARGETS” (UNIVERSITY OF PITTSBURGH-OF THE COMMONWEALTH SYSTEM OF …, priority 2020, published 2024).

In this assay the test system is 15LOX/PEBP1. The assay is described as follows: Potency of 15LOX/PEBP1 inhibitors with anti-ferroptotic effect (Table 1). The format is cell-based. The text has this: Development and testing of new compounds that inhibit 15LOX/PEBP1 complex activity. A combination of computational and experimental studies are used. […] Computer modeling considers specific features of organization of 15LOX/PEBP1 complexes and positioning of AA-PE as well as regio-specific oxygenation of AA-residues at 15th carbon. […] It has been shown that: i) binding interface of 15LOX in 15LOX/PEBP1 complex includes a helix on 15LOX (α2) and kinase binding epitope (D144, H145, R146) on PEBP1 (FIG. 8); and ii) interfacial interactions play a pivotal role in allosterically altering conformational dynamics of 15LOX in complex, and its substrate specificity. Analysis of change in access to catalytic site upon PEBP1 binding, using elastic network models indicates needed sites at 15LOX/PEBP1 binding interface. Dynamics simulations are also performed, for 15LOX alone and 15LOX/PEBP1 complex. An effective inhibitor, NCG-01, with in vivo activity has been indicated. Several other 15LOX/PEBP1 inhibitors with anti-ferroptotic effect (FIG. 9) have been identified. To test the effectiveness of compounds identified from the computational screen, RSL3 and mechanical stretch models with LDH and PI assays as a primary outcome are performed. The compounds that inhibit cell death by at least 50% are then evaluated for their effects on AA-PE and AA oxidation by 15LOX/PEBP1 complex and 15LOX alone, respectively, by LC-MS. Evaluation of the effect of compounds in suppressing AA-PE-OOH formation in cells upon proferroptotic stimuli is also performed.

As to `FC(F)(F)c1ccc(CSc2nc(-c3ccccc3)cn2-c2ccc(Cl)cc2)cc1` [Compound 13, 1-(4-chlorophenyl)-4-phenyl-2-((4-(trifluoromethyl)benzyl)thio)-1H-imidazole], the Potency entry is “+ (+ > 1 μM)”. Take `Fc1cccc(-n2cc(-c3ccccc3)nc2SCc2cccc(Cl)c2)c1` [Compound 39, 2-((3-chlorobenzyl)thio)-1-(3-fluorophenyl)-4-phenyl-1H-imidazole]: the Potency entry is “+ (+ > 1 μM)”. `Fc1cccc(-n2cc(-c3ccccc3)nc2SCc2ccc(OC(F)F)cc2)c1` [Compound 51, 2-((4-(difluoromethoxy)benzyl)thio)-1-(3-fluorophenyl)-4-phenyl-1H-imidazole]: the Potency result is given as “+ (+ > 1 μM)”. For `Fc1cccc(-n2cc(-c3ccccc3)nc2NCc2cccc(C(F)(F)F)c2)c1` [Compound 63, 1-(3-fluorophenyl)-4-phenyl-N-(3-(trifluoromethyl)benzyl)-1H-imidazol-2-amine] the value was “++ (++ = 101-1000 nM)”; for `Fc1cccc(-n2cc(-c3ccccc3)nc2NCc2ccc(F)c(F)c2)c1` [Compound 64, N-(3,4-difluorobenzyl)-1-(3-fluorophenyl)-4-phenyl-1H-imidazol-2-amine], “++ (++ = 101-1000 nM)”; for `FC(F)(F)c1ccc(CSc2nc(-c3ccccc3)cn2-c2cccc(Cl)c2)cc1` [Compound 17, 1-(3-chlorophenyl)-4-phenyl-2-((4-(trifluoromethyl)benzyl)thio)-1H-imidazole], “+ (+ > 1 μM)”.

As to `NS(=O)(=O)c1ccc(CSc2nc(-c3ccccc3)cn2-c2cccc(F)c2)cc1` [Compound 44, 4-(((1-(3-fluorophenyl)-4-phenyl-1H-imidazol-2-yl)thio)methyl)benzenesulfonamide], the Potency entry is “+ (+ > 1 μM)”. For `Fc1cccc(-n2cc(-c3ccccc3)nc2NCc2ccc(C(F)(F)F)cc2)c1` [Compound 32, 1-(3-fluorophenyl)-4-phenyl-N-(4-(trifluoromethyl)benzyl)-1H-imidazol-2-amine] the value was “++ (++ = 101-1000 nM)”; for `Cc1cccc(CNc2nc(-c3ccccc3)cn2-c2cccc(F)c2)c1` [Compound 57, 1-(3-fluorophenyl)-N-(3-methylbenzyl)-4-phenyl-1H-imidazol-2-amine], “++ (++ = 101-1000 nM)”; for `Fc1cccc(-n2cc(-c3ccc(Br)cc3)nc2SCc2ccc(C3(C(F)(F)F)N=N3)cc2)c1` [Compound 65, 4-(4-bromophenyl)-1-(3-fluorophenyl)-2-((4-(3-(trifluoromethyl)-3H-diazirin-3-yl)benzyl)thio)-1H-imidazole], “+ (+ > 1 μM)”. On to `Fc1cc(F)cc(-n2cc(-c3ccccc3)nc2SCc2ccc(C(F)(F)F)cc2)c1` [Compound 21, 1-(3,5-difluorophenyl)-4-phenyl-2-((4-(trifluoromethyl)benzyl)thio)-1H-imidazole], for which the Potency entry is “dead”.

As to `COc1cc(CNc2nc(-c3ccccc3)cn2-c2cccc(F)c2)ccc1C(F)(F)F` [Compound 67, 1-(3-fluorophenyl)-N-(3-methoxy-4-(trifluoromethyl)benzyl)-4-phenyl-1H-imidazol-2-amine], the Potency entry was “++ (++ = 101-1000 nM)”. In the case of `COc1cccc(CNc2nc(-c3ccccc3)cn2-c2cccc(F)c2)c1` [Compound 62, 1-(3-fluorophenyl)-N-(3-methoxybenzyl)-4-phenyl-1H-imidazol-2-amine], the Potency entry is recorded as “++ (++ = 101-1000 nM)”. `O=C(Nc1nc(-c2ccccc2)cn1-c1cccc(F)c1)c1ccc(C(F)(F)F)cc1` [Compound 31, N-(1-(3-fluorophenyl)-4-phenyl-1H-imidazol-2-yl)-4-(trifluoromethyl)benzamide]: the Potency result is recorded as “+ (+ > 1 μM)”. `Fc1cccc(-n2cc(-c3ccccc3)nc2NCc2ccc(Cl)cc2)c1` [Compound 59, N-(4-chlorobenzyl)-1-(3-fluorophenyl)-4-phenyl-1H-imidazol-2-amine]: the Potency result is “++ (++ = 101-1000 nM)”.
